The values below come from patent US7767240B2, “Microbiological control in poultry processing” (priority 2001, dated 2010).

Structures are written as SMILES.

Experiment [1] relates to Salmonella. Nature of the experiment: Salmonella positive samples, simulated USDA HACCP detection (Example 7). The format is cell-based, Salmonella enteritidis. The conditions noted are these: 20 ppm (Cl2 equivalent) during chilling; for Salmonella positive samples (Number 51): birds inoculated with Salmonella prior to chilling, control 21/51; for Salmonella positive samples (%): control 41.18%. An excerpt:
After normal processing of 56-day-old birds, carcasses were immersed first in a warm bath containing 10^4 per mL Escherichia coli, 10^4 per mL Salmonella enteritidis, 10^4 per mL Pseudomonas aeruginosa, 10^4 per mL Campylobacter jejuni, and 10^4 per mL spoilage bacteria each from two strains (Listeria monocytogenes and Shigella sonnei). Carcasses were then immersed in a chill tank “soup”, containing normal organic fluids (blood, fat, skin, and meat particles) and containing various disinfectants (termed test materials). These whole bird bacteria count tests were conducted at pH 8. The effect of the test compounds on skin pigmentation was determined by use of Minolta Color Meter L value or Lightness, a value or redness and b value or yellowness. Post-chilling skin bacteria of various strains were determined over a 20-day period. Spoilage, using sensory odors as a model, determined time required to create a putrid/ammonia-like odor. After salmonella infection in chill tanks, USDA HACCP salmonella detection was simulated and reported.
DBDMH and BCDMH stock solutions and diluted test solutions (20 ppm Cl2 equivalent), a bacteria stock solution, and a “chicken soup” were prepared as in Example 3 except that the Stabrom® 909 biocide concentrate was diluted by adding 30 mL per liter of water just prior to application. This diluted solution was sprayed on the birds, both inside and outside, in quantities of 200 mL per bird. In addition, the bacterial broth treatments, the whole bird wash sampling procedure, and the methodologies used for quantitative or qualitative determinations for bacterial organisms were conducted as in Example 3.
The details concerning the trial events used as well as the detailed experimental design used in these tests were the same as described in Example 6. The only exceptions were: • a) In the case of the birds of Test Group 5 (note Table 38), while the carcass was still warm, the 10 birds were each sprayed both internally and externally, using a misting hand-held nozzle, with 200 mL of the 3% solution of Stabrom 909 biocide (SSBC). […] The spray was allowed to stay on the warm carcasses for 60 seconds. • b) The treatment on sampling day 0 of 102 total of the remaining 110 carcasses from each treatment involving “whole bird” washing and Salmonella detection, all as described in Example 6, was applied only to the birds of Test Groups 1-4 (note Table 38).

Experiment [2] deals with Salmonella. The experiment in a line: Salmonella positive samples, simulated USDA HACCP detection (Example 6). The conditions noted are these: for Salmonella Positive Samples (Number per 51): birds inoculated with Salmonella prior to chilling. The experiment is classed as cell-based, Salmonella enteritidis. As for the experimental part: The objective of this study was to determine the effect of Clorox® bleach and 1,3-dibromo-5,5-dimethylhydantoin (DBDMH) on individual carcass bacteria field strains after 1.5 hour in a chill tank solution and spoilage 20-day shelf life longevity (caused by bacteria contamination) in a Graded Level Study Model. After normal processing of 56-day-old birds, carcasses were immersed first in a warm bath containing 10^4 CFU's per mL Escherichia coli, 10^4 CFU's per mL Salmonella enteritidis, 10^4 CFU's per mL Pseudomonas aeruginosa, 10^4 CFU's per mL Campylobacter jejuni, and 10^4 CFU's per mL spoilage bacteria each from two strains (Listeria monocytogenes and Shigella sonnei). Carcasses were then immersed in a chill tank “soup”, containing normal organic fluids (blood, fat, skin, and meat particles) and containing various disinfectants (termed test materials). These tests were conducted at pH 8 (adjusted by trisodium phosphate). Skin pigmentation (Minolta Color Meter L value or Lightness, a value or redness and b value or yellowness) was determined before and after processing. Post-chilling skin bacteria of various strains were determined over a 20-day period. […] After salmonella infection in chill tanks, USDA HACCP salmonella detection was simulated and reported.
A DBDMH stock solution and DBDMH test solutions of the concentrations specified in Table 33, a bacteria stock solution, and a “chicken soup” were prepared as in Example 3. In addition, the bacterial broth treatments, the whole bird wash sampling procedure, and the methodologies used for quantitative or qualitative determinations for bacterial organisms were conducted as in Example 3.
The trial events and experimental design used in this group of tests were the same as in Example 5 with the following exceptions: • a) The temperature during the 20-day period of storage in the refrigerator was […]. • b) Observations of the degree of “bloating” (defined as water or air additions under the skin area considered objectionable) were conducted on all processed birds. • c) On each of sampling days 0, 2, 4, 6, 8, 10, 12, 14, 16, 18, and 20, ten carcasses from each treatment were analyzed by removing 23.8 cm^2 of skin from the breast right up to the neck using a template and a sterile scalpel. Each skin sample was placed in a bag with 15 mL Butterfield's Phosphate Buffer Solution (BPBS) added and treated in a Stomacher bag for 60 seconds. A 10-fold dilution series of the mixture was made in BPBS and two parallel samples of […] each were spread on the appropriate plate count agar for determination of the total viable numbers. The plates were incubated at 35° C. for 24 hours. Mean values were calculated from the two determinations of the three samples taken from each combination of chilling and storage. Bacterial numbers were reported as pooled or averaged log10 colony-forming units (CFU's) per square centimeter. • d) Also on sampling day 0, 102 total of the remaining 110 carcasses from each treatment (all bloating and oddly processed birds were removed) were “whole bird” washed by the sampling procedure described in Example 3. Salmonella detection were noted and reported as number of positive salmonella colonies per 51 birds and % of total.

Turning to `CC1(C)C(=O)N(Cl)C(=O)N1Br` [BCDMH, N,N′-bromochloro-5,5-dimethylhydantoin], in the experiment with Salmonella [1], the “Salmonella positive samples (Number 51)” value was 6/51 and the “Salmonella positive samples (%)” value is reported as 11.76%.

Take `CC1(C)C(=O)N(Br)C(=O)N1Br` [DBDMH, 1,3-dibromo-5,5-dimethylhydantoin]: the “Salmonella positive samples (Number 51)” value with Salmonella [1] is 1/51. Further, the “Salmonella positive samples (%)” value in the experiment on Salmonella [1] was 1.96%. The “Salmonella Positive Samples (Number per 51)” value in the experiment on Salmonella [2] (5 ppm, control 32/51) is on record as 7/51; in the experiment on Salmonella [2] (10 ppm), 4/51; in the experiment on Salmonella [2] (15 ppm), 2/51; with Salmonella [2] (20 ppm), 1/51; in the experiment with Salmonella [2] (25 ppm), 0/51. For the same compound, the “Salmonella Positive Samples (% of total)” value in the experiment with Salmonella [2] (5 ppm, control 62.74%) is 13.73%; in the experiment with Salmonella [2] (10 ppm), 7.84%; in the experiment on Salmonella [2] (15 ppm), 3.92%; in the experiment with Salmonella [2] (20 ppm), 1.96%; in the experiment with Salmonella [2] (25 ppm) it was 0.00%.
